Reference: US6486203B1, “Treating inflammatory diseases of the head and neck with cyclooxygenase-2 inhibitors” (Cornell Research Foundation, Inc., priority 1998, dated 2002)

What was measured:
Type in all cases: in vivo, human
viral pharyngitis = test: Treatment of a patient with viral pharyngitis with lozenges (Example II); conditions: person with viral pharyngitis; lozenges containing 100 mg four times a day
Experimental: A person has symptoms of a sore throat. They are evaluated by their physician who detects an erythematous pharynx. A diagnosis of viral pharyngitis is made.

sinusitis = test: Treatment of a patient with sinusitis (Example III); conditions: person with sinusitis; 200 mg orally twice a day, together with amoxicillin; after taking one dose
Experimental: A person presents to their physician complaining of fever and headache. On physical examination, they have tenderness over their maxillary sinus. A diagnosis of sinusitis is made. The patient is treated with amoxicillin 500 mg orally every eight hours for ten days. They are also given Celebrex 200 mg orally twice a day for seven days.

tonsillitis = test: Treatment of a patient with tonsillitis (Example I); conditions: person with tonsillitis; 200 mg orally twice a day, together with amoxicillin; after taking one dose
Experimental: A person has symptoms of a sore throat and fever. They are evaluated by a physician who notes inflamed tonsils and diagnoses tonsillitis. The patient is treated with amoxicillin 500 mg orally every eight hours for ten days. Additionally, they are given Celebrex (celecoxib) 200 mg orally twice a day for seven days.

sore throat = test: Treatment of sore throat with resveratrol lozenges (Example IV); conditions: person with sore throat; lozenges of 1 gram, four per day for two days
Description: A person has symptoms of a sore throat.

periodontitis = test: Treatment of a patient with periodontitis with resveratrol lozenges (Example V); conditions: tobacco-smoking person with periodontitis; lozenges of 1 gram twice a day; four months later
Description: A […] tobacco-smoking […] is referred to a periodontist for bleeding gums and is diagnosed with periodontitis.

Row | Compound | resolution of sore throat (viral pharyngitis) | improvement in sinus pain (sinusitis) | improvement in throat pain (tonsillitis) | relief of throat discomfort (sore throat) | bleeding in gums (periodontitis) | periodontal disease on examination (periodontitis)
1 | Cc1ccc(-c2cc(C(F)(F)F)nn2-c2ccc(S(N)(=O)=O)cc2)cc1 [Celebrex, 4-[5-(4-Methylphenyl)-3-(trifluoromethyl)-1H-pyrazol-1-yl]benzenesulfonamide] | complete resolution of their sore throat within two days | marked improvement in their sinus pain | marked improvement in their throat pain |  |  | 
2 | Oc1ccc(/C=C/c2cc(O)cc(O)c2)cc1 [resveratrol] |  |  |  | rapid relief of their throat discomfort | markedly decreased bleeding in their gums | improvement in periodontal disease is detected on examination
